Data published in BigSolDB 2.1.

N=C(N)NC(N)=S
solubility (mole fraction)
Conditions	283.15 K	288.15 K	293.15 K	298.15 K	303.15 K	308.15 K	313.15 K	318.15 K	323.15 K
in 1,4-dioxane	–	0.00901	0.0107	0.0127	0.0151	0.0178	0.0208	0.0241	0.028
in NMP	0.0139	0.0166	0.0195	0.0236	0.0281	0.0329	0.0389	0.0455	0.0532
in acetone	0.0103	0.0123	0.0145	0.0175	0.0203	0.0241	0.028	0.0324	0.0371
in acetonitrile	0.00365	0.00428	0.00504	0.00591	0.00688	0.008	0.00927	0.0105	0.0121
in cyclohexane	3.6e-05	4.3e-05	5e-05	6e-05	7e-05	8.4e-05	9.9e-05	0.000118	0.00014
in ethanol	0.0045	0.00521	0.00605	0.00706	0.00817	0.00933	0.0106	0.0122	0.014
in ethyl acetate	0.00196	0.00245	0.00314	0.00391	0.00471	0.00569	0.00679	0.00797	0.0094
in isopropanol	0.00124	0.00167	0.00223	0.00286	0.00363	0.00456	0.00559	0.0069	0.00854
in methanol	0.00558	0.00635	0.00744	0.0089	0.0105	0.0123	0.0143	0.0165	0.0192
in n-butanol	0.000477	0.000749	0.00111	0.00162	0.00226	0.00314	0.00432	0.00575	0.0076
in n-propanol	0.00271	0.00326	0.00393	0.00468	0.00564	0.00676	0.00782	0.00901	0.0104
in toluene	0.000126	0.000137	0.000149	0.00016	0.000174	0.000189	0.000206	0.000223	0.000243
